Measurements taken from patent US20240383869A1, “ARYLACETYL INHIBITORS OF TG2 AND USES THEREOF” (UNIVERSITY OF OTTAWA, priority 2021, published 2024).
Like-named read-outs stand apart in the source and are kept apart here.

Molecular target: T1, hTG2 (Homo sapiens, UniProt P21980)
T1 sequence (P21980 1-687): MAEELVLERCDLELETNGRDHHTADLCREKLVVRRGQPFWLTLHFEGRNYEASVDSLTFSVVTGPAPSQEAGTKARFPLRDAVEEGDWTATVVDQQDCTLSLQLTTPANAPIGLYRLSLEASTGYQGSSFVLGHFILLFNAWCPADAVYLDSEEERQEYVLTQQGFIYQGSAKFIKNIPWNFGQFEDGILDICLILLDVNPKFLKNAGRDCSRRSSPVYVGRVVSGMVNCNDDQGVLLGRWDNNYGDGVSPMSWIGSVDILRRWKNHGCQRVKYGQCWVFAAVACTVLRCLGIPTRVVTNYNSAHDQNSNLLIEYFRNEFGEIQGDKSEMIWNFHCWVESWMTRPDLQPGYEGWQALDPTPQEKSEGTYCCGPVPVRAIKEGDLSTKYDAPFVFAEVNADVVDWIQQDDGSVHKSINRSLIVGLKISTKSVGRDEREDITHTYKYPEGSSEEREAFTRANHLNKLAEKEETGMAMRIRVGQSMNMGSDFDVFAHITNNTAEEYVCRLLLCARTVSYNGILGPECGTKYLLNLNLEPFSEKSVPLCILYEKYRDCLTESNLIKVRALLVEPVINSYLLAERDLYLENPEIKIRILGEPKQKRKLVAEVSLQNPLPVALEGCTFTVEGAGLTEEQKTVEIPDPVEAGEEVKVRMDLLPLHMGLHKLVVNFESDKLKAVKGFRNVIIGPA
Test: biochemical
Details: for Ki: read-out: KI (converted)
Protocol: The ability of the compounds to inhibit TG2 transamidase activity and the kinetics of TG2 inhibition were investigated using a colorimetric activity assay, as follows:
Colorimetric transamidase activity assay. The activities of hTG1, hTG2 and hTG6 were measured via a colorimetric assay using the chromogenic substrate Cbz-Glu(γ-p-nitrophenyl ester)Gly (AL5), as described (Leblanc, A. et al., “Kinetic studies of guinea pig liver transglutaminase reveal a general-base-catalyzed deacylation mechanism.” Biochemistry 2001, 40 (28), 8335-8342). Assays were conducted at 25° C. in 50 mM MOPS buffer (pH 6.95) containing 7.5 mM CaCl2. […] The substrate AL5 was prepared in as a stock solution in DMSO such that the final concentration of this co-solvent was constant at 2.5% v/v. Stock solutions of the inhibitors were made in water ranging in concentration from 100-500 μM. The reaction was initiated with the addition of enzyme, 0.10 μM hTG1, 0.25 μM hTG2 (4.6 mU/mL) or 0.32 μM hTG6. Formation of hydrolysis product, p-nitrophenolate (pNP), was monitored at 405 nm in a polystyrene 96-well microplate using a BioTek Synergy 4 plate reader. The observed first-order rate constants of inactivation (kobs) were determined via non-linear regression fit to a mono-exponential model (Eqn 1) of absorbance versus time curves. These rate constants (kobs) were in turn fit to a saturation kinetics model (Eqn 2), by non-linear regression, providing the kinetic parameters kinact and KI, as previously described by Stone and Hofsteenge (Stone, S. R. and Hofsteenge, J., “Specificity of activated human protein C.” Biochem. J. 1985, 230 (2), 497-502). […] Experiments were completed in triplicate at minimum.
Fitting of this time-dependent inactivation to a monoexponential equation gave first-order rate constants, kobs. […] In some cases, the kinetic data were fitted to a linear double reciprocal equation.

[1] = fit to saturation kinetics model, 25° C., pH 6.95, 100 μM AL5
[2] = fit to saturation kinetics model, 25° C., pH 6.95, 100 μM AL5, read-out: kinact (converted)
[3] = fit to saturation kinetics model, 25° C., pH 6.95, 100 μM AL5, read-out: kinact/KI (converted)
[4] = values determined using a double-reciprocal analysis
[5] = values determined using a double-reciprocal analysis, read-out: kinact (converted)
[6] = values determined using a double-reciprocal analysis, read-out: kinact/KI (converted)

C=CC(=O)NCCCC[C@H](NC(=O)C(C)C)C(=O)N1CCN(C(=O)c2cccc3ccccc23)CC1 [Inhibitor 39, (S)-N-(6-(4-(1-naphthoyl)piperazin-1-yl)-5-isobutyramido-6-oxohexyl)acrylamide]
Ki [1]: 9.9 ± 1.4 µM | kinact [2]: 0.0108 s⁻¹ | kinact/KI [3]: 1080 M⁻¹ s⁻¹

C=CC(=O)NCCCC[C@H](NC(C)=O)C(=O)N1CCN(C(=O)c2cccc3ccccc23)CC1 [Inhibitor 41, (S)-N-(6-(4-(1-naphthoyl)piperazin-1-yl)-5-acetamido-6-oxohexyl)acrylamide]
kinact: 0.0242 s⁻¹ | kinact/KI: 735 M⁻¹ s⁻¹ | Ki [4]: 33 ± 14.5 µM

C=CC(=O)NCCCC[C@H](NC(=O)Cc1cccc(Cl)c1)C(=O)N1CCN(C(=O)c2cccc3ccccc23)CC1 [Inhibitor 73, (S)-N-(6-(4-(1-naphthoyl)piperazin-1-yl)-5-(2-(3-chlorophenyl)acetamido)-6-oxohexyl)acrylamide]
Ki [1]: 1 ± 0.5 µM | kinact [2]: 0.005 s⁻¹ | kinact/KI [3]: 4830 M⁻¹ s⁻¹

C=CC(=O)NCCCC[C@H](NC(=O)c1cccnc1)C(=O)N1CCN(C(=O)c2cccc3ccccc23)CC1 [Inhibitor 19, (S)-N-(1-(4-(1-naphthoyl)piperazin-1-yl)-6-acrylamido-1-oxohexan-2-yl)nicotinamide]
Ki [4]: 25.4 ± 2.8 µM | kinact [5]: 0.00983 s⁻¹ | kinact/KI [6]: 388 M⁻¹ s⁻¹

C=CC(=O)NCCCC[C@H](NC(=O)Cc1ccccc1C(F)(F)F)C(=O)N1CCN(C(=O)c2cccc3ccccc23)CC1 [Inhibitor 81, (S)-N-(6-(4-(1-naphthoyl)piperazin-1-yl)-5-(2-(2-trifluoromethylphenyl)acetamido)-6-oxohexyl)acrylamide]
Ki [1]: 10.1 ± 3.1 µM | kinact [2]: 0.0167 s⁻¹ | kinact/KI [3]: 1670 M⁻¹ s⁻¹

C=CC(=O)NCCCC[C@H](NC(=O)c1ccccn1)C(=O)N1CCN(C(=O)c2cccc3ccccc23)CC1 [Inhibitor 18, (S)-N-(1-(4-(1-Naphthoyl)piperazin-1-yl)-6-acrylamido-1-oxohexan-2-yl)picolinamide]
Ki [4]: 41.4 ± 3.8 µM | kinact [5]: 0.0065 s⁻¹ | kinact/KI [6]: 160 M⁻¹ s⁻¹

C=CC(=O)NCCCC[C@H](NC(=O)c1ccc(F)cc1)C(=O)N1CCN(C(=O)c2cccc3ccccc23)CC1 [Inhibitor 64, (S)-N-(1-(4-(1-naphthoyl)piperazin-1-yl)-6-acrylamido-1-oxohexan-2-yl)-4-fluorobenzamide]
Ki [1]: 16.2 ± 7.5 µM | kinact [2]: 0.015 s⁻¹ | kinact/KI [3]: 923 M⁻¹ s⁻¹ | Ki [4]: 11.6 µM | kinact [5]: 0.0117 s⁻¹ | kinact/KI [6]: 1010 M⁻¹ s⁻¹

C=CC(=O)NCCCC[C@H](NC(=O)c1ccncc1)C(=O)N1CCN(C(=O)c2cccc3ccccc23)CC1 [Inhibitor 20, (S)-N-(1-(4-(1-naphthoyl)piperazin-1-yl)-6-acrylamido-1-oxohexan-2-yl)isonicotinamide]
Ki [4]: 19.3 ± 4.3 µM | kinact [5]: 0.004 s⁻¹ | kinact/KI [6]: 212 M⁻¹ s⁻¹

C=CC(=O)NCCCC[C@H](NC(=O)CC)C(=O)N1CCN(C(=O)c2cccc3ccccc23)CC1 [Inhibitor 40, (S)-N-(6-(4-(1-naphthoyl)piperazin-1-yl)-6-oxo-5-propionamidohexyl)acrylamide]
Ki [1]: 5.1 ± 1 µM | kinact [2]: 0.00883 s⁻¹ | kinact/KI [3]: 1720 M⁻¹ s⁻¹

C=CC(=O)NCCCC[C@H](NC(=O)CCCc1ccccc1)C(=O)N1CCN(C(=O)c2cccc3ccccc23)CC1 [Inhibitor 69, (S)-N-(1-(4-(1-naphthoyl)piperazin-1-yl)-6-acrylamido-1-oxohexan-2-yl)-4-phenylbutanamide]
Ki [1]: 5.3 ± 0.6 µM | kinact [2]: 0.0035 s⁻¹ | kinact/KI [3]: 660 M⁻¹ s⁻¹

C=CC(=O)NCCCC[C@H](NC(=O)CC(C)C)C(=O)N1CCN(C(=O)c2cccc3ccccc23)CC1 [Inhibitor 38, (S)-N-(1-(4-(1-naphthoyl)piperazin-1-yl)-6-acrylamido-1-oxohexan-2-yl)-3-methylbutanamide]
Ki [1]: 9.7 ± 1.9 µM | kinact [2]: 0.0107 s⁻¹ | kinact/KI [3]: 1110 M⁻¹ s⁻¹

C=CC(=O)NCCCC[C@H](NC(=O)Cc1ccc(Cl)c(Cl)c1)C(=O)N1CCN(C(=O)c2cccc3ccccc23)CC1 [Inhibitor 79, (S)-N-(6-(4-(1-naphthoyl)piperazin-1-yl)-5-(2-(3,4-dichlorophenyl)acetamido)-6-oxohexyl)acrylamide]
Ki [1]: 0.58 ± 0.3 µM | kinact [2]: 0.00133 s⁻¹ | kinact/KI [3]: 2180 M⁻¹ s⁻¹

C=CC(=O)NCCCC[C@H](NC(=O)Cc1ccc(F)cc1)C(=O)N1CCN(C(=O)c2cccc3ccccc23)CC1 [Inhibitor 70, (S)-N-(6-(4-(1-naphthoyl)piperazin-1-yl)-5-(2-(4-fluorophenyl)acetamido)-6-oxohexyl)acrylamide]
Ki [1]: 4.2 ± 0.9 µM | kinact [2]: 0.00817 s⁻¹ | kinact/KI [3]: 1980 M⁻¹ s⁻¹

C=CC(=O)NCCCC[C@H](NC(=O)c1nccn1C)C(=O)N1CCN(C(=O)c2cccc3ccccc23)CC1 [Inhibitor 21, (S)-N-(1-(4-(1-naphthoyl)piperazin-1-yl)-6-acrylamido-1-oxohexan-2-yl)-1-methyl-1H-imidazole-2-carboxamide]
Ki [1]: 15.7 ± 4.5 µM | kinact [2]: 0.003 s⁻¹ | kinact/KI [3]: 192 M⁻¹ s⁻¹

C=CC(=O)NCCCC[C@H](NC(=O)CC1CCCCC1)C(=O)N1CCN(C(=O)c2cccc3ccccc23)CC1 [Inhibitor 34, (S)-N-(6-(4-(1-naphthoyl)piperazin-1-yl)-5-(2-cyclohexylacetamido)-6-oxohexyl)acrylamide]
Ki [1]: 12.2 ± 2.4 µM | kinact [2]: 0.00433 s⁻¹ | kinact/KI [3]: 348 M⁻¹ s⁻¹

C=CC(=O)NCCCC[C@H](NC(=O)c1cn(C)cn1)C(=O)N1CCN(C(=O)c2cccc3ccccc23)CC1 [Inhibitor 22, (S)-N-(1-(4-(1-naphthoyl)piperazin-1-yl)-6-acrylamido-1-oxohexan-2-yl)-1-methyl-1H-imidazole-4-carboxamide]
Ki [1]: 22.3 ± 5 µM | kinact [2]: 0.00467 s⁻¹ | kinact/KI [3]: 210 M⁻¹ s⁻¹

C=CC(=O)NCCCC[C@H](NC(=O)CCc1ccccc1)C(=O)N1CCN(C(=O)c2cccc3ccccc23)CC1 [Inhibitor 68, (S)-N-(6-(4-(1-naphthoyl)piperazin-1-yl)-6-oxo-5-(3-phenylpropanamido)hexyl)acrylamide]
Ki [1]: 2.8 ± 0.3 µM | kinact [2]: 0.01 s⁻¹ | kinact/KI [3]: 3570 M⁻¹ s⁻¹

C=CC(=O)NCCCC[C@H](NC(=O)c1cccc(F)c1)C(=O)N1CCN(C(=O)c2cccc3ccccc23)CC1 [Inhibitor 63, (S)-N-(1-(4-(1-naphthoyl)piperazin-1-yl)-6-acrylamido-1-oxohexan-2-yl)-3-fluorobenzamide]
Ki [1]: 13.4 ± 3.5 µM | kinact [2]: 0.0107 s⁻¹ | kinact/KI [3]: 797 M⁻¹ s⁻¹ | Ki [4]: 9.9 µM | kinact [5]: 0.0085 s⁻¹ | kinact/KI [6]: 860 M⁻¹ s⁻¹

C=CC(=O)NCCCC[C@H](NS(C)(=O)=O)C(=O)N1CCN(C(=O)c2cccc3ccccc23)CC1 [Inhibitor 91, (S)-N-(6-(4-(1-naphthoyl)piperazin-1-yl)-5-(methylsulfonamido)-6-oxohexyl)acrylamide]
Ki [1]: 25.3 ± 7.1 µM | kinact [2]: 0.0095 s⁻¹ | kinact/KI [3]: 377 M⁻¹ s⁻¹

C=CC(=O)NCCCC[C@H](NC(=O)C1CC1)C(=O)N1CCN(C(=O)c2cccc3ccccc23)CC1 [Inhibitor 36, (S)-N-(1-(4-(1-naphthoyl)piperazin-1-yl)-6-acrylamido-1-oxohexan-2-yl)cyclopropanecarboxamide]
Ki [1]: 10.6 ± 3.6 µM | kinact [2]: 0.017 s⁻¹ | kinact/KI [3]: 1610 M⁻¹ s⁻¹

C=CC(=O)NCCCC[C@H](NS(=O)(=O)Cc1ccccc1)C(=O)N1CCN(C(=O)c2cccc3ccccc23)CC1 [Inhibitor 88]
Ki [1]: 46.7 ± 10.2 µM | kinact [2]: 0.00883 s⁻¹ | kinact/KI [3]: 190 M⁻¹ s⁻¹

C=CC(=O)NCCCC[C@H](NC(=O)Cc1cccc(Cl)c1Cl)C(=O)N1CCN(C(=O)c2cccc3ccccc23)CC1 [Inhibitor 78, (S)-N-(6-(4-(1-naphthoyl)piperazin-1-yl)-5-(2-(2,3-dichlorophenyl)acetamido)-6-oxohexyl)acrylamide]
Ki [1]: 2.7 ± 2.8 µM | kinact [2]: 0.00767 s⁻¹ | kinact/KI [3]: 2830 M⁻¹ s⁻¹
